Test results: patent publication US7268245B2, “Multinuclear platinum compounds” (Sonus Pharmaceuticals, Inc., priority 2004, dated 2007)
Where two headings read alike, the source gives them in different places.

Experiments:
Format in all cases: cell-based
[1] = tested on: NCI-H69 small cell lung cancer cell line; experiment: MTS cell viability assay, growth inhibition, NCI-H69; conditions: NCI-H69 cells, 72 hours of treatment
Description: (§1) Cytotoxicity was measured in six cell lines: two colorectal carcinoma cell lines (HT29 and HCT-116); two small cell lung cancer cell lines (NCI-H69 and NCI-H69/AR); and two ovarian cancer cell lines (A2780 and A2780/DPPt). Viable cell number was measured using the MTS cell viability assay ([…] 96 AQueous One Solution Cell Proliferation Assay kit available from Promega, US). […] Cisplatin was prepared in saline. […] All tumor lines were propagated under sterile conditions and incubated at 37° C. in HEPA-filtered CO2 tissue culture incubators with 5% CO2 and 95% humidity in colorless RPMI 1640 medium (Mediatech, Herndon, Va.) containing 5% fetal bovine serum (complete medium). The ovarian and colon tumor cell lines were plated in microtiter plates at a density of 5,000 cells per well. The lung lines were plated at a density of 10,000 cells per well. Viable cell number was measured by the MTS dye conversion assay after a total of 72 hours of treatment. […] The plates were incubated for four hours at 37° C. The absorbance was measured at 490 nm on a Coulter microplate reader.

[2] = tested on: A2780 ovarian cancer cell line; experiment: MTS cell viability assay, growth inhibition, A2780; conditions: A2780 cells
Description: as §1

[3] = tested on: NCI-H69/AR small cell lung cancer cell line; experiment: MTS cell viability assay, growth inhibition, NCI-H69/AR; conditions: NCI-H69/AR cells, 72 hours of treatment
Description: as §1

[4] = tested on: A2780/DDPT ovarian cancer cell line (platinum resistant); experiment: MTS cell viability assay, growth inhibition, A2780/DDPT
Description: as §1

[5] = tested on: HCT-116 colorectal carcinoma cell line; experiment: MTS cell viability assay, growth inhibition, HCT-116; conditions: HCT-116 cells, 72 hours of treatment
Description: as §1

[6] = tested on: HT29 colorectal carcinoma cell line; experiment: MTS cell viability assay, growth inhibition, HT29; conditions: HT29 cells, 72 hours of treatment
Description: as §1

[7] = 72 hours of treatment, MTS, read-out: Growth Inhibition (GI50) A2780
[8] = A2780/DDPT cells, 72 hours of treatment, MTS, read-out: Growth Inhibition (GI50) A2780/DDPT
[9] = method of Example 10 (text of Examples 8 and 9), read-out: GI50 for A2780
[10] = A2780 (platinum resistant) cells, method of Example 10 (text of Examples 8 and 9), read-out: GI50 for A2780 (platinum resistant)

Question: For “1,3-Diamino-2-hydroxypropane-N,N,N′,N′-tetraacetic-acid-diplatinum [DAPTA-diplatinum]”, which GI50 [1] is on record?
Answer: The GI50 was 27 µM.

Question: And the GI50 [2, 7]?
Answer: Its GI50 is 20 µM.

Question: What about the GI50 [3] of the same compound?
Answer: The GI50 was 21 µM.

Question: What about the GI50 [4, 8] of the same compound?
Answer: Its GI50 is > 100 µM.

Question: And the GI50 [5]?
Answer: The GI50 was 81 µM.

Question: What about the GI50 [6] of the same compound?
Answer: The GI50 was > 100 µM.

Question: Which results are given for `N.N.[Cl][Pt][Cl]` [Cisplatin, cis-diaminedichloroplatinum (II), reference compound]?
Answer: GI50 [1]: 15 µM; GI50 [2, 7]: 15 µM; GI50 [2, 9]: 15 µM; GI50 [3]: 15 µM; GI50 [4, 10]: 57 µM; GI50 [4, 8]: 57 µM; GI50 [5]: 43 µM; GI50 [6]: 61 µM

Question: With “diethylenetriamine-N,N,N′,N″,N″-pentaacetic-acid-diplatinum [DTPA-diplatinum]” as the compound, how does the GI50 [1] read?
Answer: Its GI50 is 18 µM.

Question: What about the GI50 [2, 7] of the same compound?
Answer: The GI50 was 19 µM.

Question: And the GI50 [3]?
Answer: Its GI50 is 23 µM.

Question: And the GI50 [4, 8]?
Answer: The GI50 was 62 µM.

Question: And the GI50 [5]?
Answer: The GI50 was 41 µM.

Question: What about the GI50 [6] of the same compound?
Answer: Its GI50 is 54 µM.

Question: How did the GI50 [2, 9] turn out when “diethylenetriamine-N,N,N′,N″,N″-pentaacetic-acid-triplatinum [DTPA-triplatinum]” was run?
Answer: Its GI50 is 19 µM.

Question: What about the GI50 [4, 10] of the same compound?
Answer: Its GI50 is 63 µM.

Question: How did the GI50 [1] turn out when “ethylene glycol-bis-(β-aminoethyl)-N,N,N′,N′-tetraacetic-acid-diplatinum [EGTA-diplatinum]” was run?
Answer: Its GI50 is > 100 µM.

Question: What about the GI50 [2, 7] of the same compound?
Answer: The GI50 was > 100 µM.

Question: What about the GI50 [3] of the same compound?
Answer: The GI50 was > 100 µM.

Question: What about the GI50 [5] of the same compound?
Answer: The GI50 was > 100 µM.

Question: With “triethylene-tetraamine-N,N,N′,N″,N′″,N′″-hexaacetic-acid-diplatinum [TTHA-diplatinum]” as the compound, how does the GI50 [1] read?
Answer: The GI50 was 9.3 µM.

Question: What about the GI50 [2, 7] of the same compound?
Answer: Its GI50 is 7.1 µM.

Question: What about the GI50 [3] of the same compound?
Answer: The GI50 was 16 µM.

Question: And the GI50 [4, 8]?
Answer: Its GI50 is 48 µM.

Question: What about the GI50 [5] of the same compound?
Answer: The GI50 was 23 µM.

Question: What about the GI50 [6] of the same compound?
Answer: The GI50 was 53 µM.

Question: Which results are given for “triethylenetetraamine-N,N,N′,N″,N′″,N′″-hexaacetic-acid-tetraplatinum [TTHA-tetraplatinum]”?
Answer: GI50 [2, 9]: 7 µM; GI50 [4, 10]: 50 µM
